What all share (assay type): in vivo
Assay [1] relates to Spodoptera littoralis (Egyptian cotton leaf worm). Briefly: Example B1: Spodoptera littoralis larvicide, feeding/residual contact activity, preventive (cotton leaf discs). The following applies: foliar, 72 h, L1 larvae on sprayed cotton leaf discs, 3 days after treatment, read-out: effect in at least one of the three categories (mortality, anti-feedancy, or growth inhibition). The text has this: Example B1: Activity Against Spodoptera littoralis (Egyptian Cotton Leaf Worm)
(§1) (Larvicide, Feeding/Residual Contact Activity, Preventive)
Cotton leaf discs were placed on agar in a 24-well microtiter plate and sprayed with test solutions. After drying, the leaf discs were infested with five L1 larvae. The samples were checked for mortality, repellent effect, feeding behaviour, and growth regulation 3 days after treatment (DAT). Control of Spodoptera littoralis by a test sample is when at least one of mortality, anti-feedant effect, and growth inhibition is higher than an untreated sample.

Assay [2] has the same test system. The assay is described as follows: Example B2: Spodoptera littoralis systemic activity (lettuce on agar). The following applies: 120 h, systemic via lettuce roots, 5 days after infestation, read-out: effect in at least one of the three categories (mortality, anti-feedancy, or growth inhibition). From the text:
Example B2: Activity Against Spodoptera littoralis (Egyptian Cotton Leaf Worm)
Test compounds were applied by pipette into 24 well plates and mixed with agar. Lettuce seeds were placed on the agar and the multi well plate is closed by another plate which contains also agar. After 7 days the roots have absorbed the compound and the lettuce has grown into the lid plate. The lettuce leaves were now cut off into the lid plate. Spodoptera eggs were pipetted through a plastic stencil on a humid gel blotting paper and the plate closed with it. The samples are checked for mortality, repellent effect, feeding behavior, and growth regulation 5 days after infestation.

Assay [3] deals with Diabrotica balteata (corn root worm). Briefly: Example B4: Diabrotica balteata larvae L2 on maize sprouts, feeding/contact, preventative. The following applies: 120 h, 5 days, read-out: activity (larval mortality and growth regulation). As to the method: Example B4: Activity Against Diabrotica balteata (Corn Root Worm)
(Larvae L2 on Maize Sprouts, Feeding/Contact, Preventative)
Maize sprouts, placed on an agar layer in 24 well micro titer plates were treated with test solutions by spraying. After drying, the MTPs were infested with L2 larvae (6-10 per well). After an incubation period of 5 days, samples were checked for larval mortality and growth regulation.

Assay [4] has as its system Myzus persicae (green peach aphid). The assay is described as follows: Example B5: Myzus persicae feeding/residual contact activity, preventive, mixed population (sunflower leaf discs). The following applies: foliar, 144 h, mixed population on sunflower leaf discs, 6 DAT. The method, then: Example B5: Activity Against Myzus persicae (Green Peach Aphid)
(Feeding/Residual Contact Activity, Preventive), Mixed Population
Sunflower leaf discs were placed on agar in a 24-well microtiter plate and sprayed with test solutions. After drying, the leaf discs were infested with an aphid population of mixed ages. After an incubation period of 6 DAT, samples were checked for mortality and special effects (e.g. phytotoxicity).

The subject of assay [5] is Tetranychus urticae (two-spotted spider mite). The assay is described as follows: Example B10: Tetranychus urticae, bean leaf disc spray test. The following applies: foliar, 192 h. The method, then: Example B10: Activity Against Tetranychus urticae (Two-Spotted Spider Mite)
Bean leaf discs on agar in 24-well microtiter plates were sprayed with aqueous test solutions prepared from 10′000 ppm DMSO stock solutions. After drying the leaf discs were infested with a mite population of mixed ages. The samples were assessed for mortality on mixed population (mobile stages) 8 days after infestation.

Assay [6] relates to Plutella xylostella (diamond back moth). The assay is described as follows: Example B3: Plutella xylostella larvicide, feeding/residual contact activity, preventive (artificial diet). The following applies: 120 h, L2 larvae on artificial diet, 5 days, read-out: activity (larval mortality, antifeedant and growth regulation). The method, then: Example B3: Activity Against Plutella xylostella (Diamond Back Moth)
as §1
24-well microtiter plate (MTP) with artificial diet was treated with test solutions by pipetting. After drying, the MTPs were infested with L2 larvae (10-15 per well). After an incubation period of 5 days, samples were checked for larval mortality, antifeedant and growth regulation.

The subject of assay [7] is Bemisia tabaci (cotton white fly). Briefly: Example B7: Bemisia tabaci adulticide contact activity, preventative (cotton leaf discs). The following applies: foliar, 168 h, adult white flies on cotton leaf discs, 7 DAT. The method, then:
Example B7: Activity Against Bemisia tabaci (Cotton White Fly)
(Adulticide Contact Activity, Preventative), Adult
Cotton leaf discs were placed on agar in a 24-well microtiter plate and sprayed with test solutions. After drying, the leaf discs were infested with adult white flies. After an incubation period of 7 DAT, samples were checked for mortality and special effects (e.g. phytotoxicity).

Assay [8] deals with Euschistus heros (neotropical brown stink bug). Briefly: Example B8: Euschistus heros, soybean leaf spray test. The following applies: 120 h, N-2 nymphs on soybean leaf, 5 days after infestation. As to the method:
Example B8: Activity Against Euschistus heros (Neotropical Brown Stink Bug)
Soybean leaf on agar in 24-well microtiter plates were sprayed with aqueous test solutions prepared from 10,000 ppm DMSO stock solutions. After drying the leaf were infested with N-2 nymphs. The samples were assessed for mortality 5 days after infestation.

In assay [9] the test system is Myzus persicae (green peach aphid). The assay is described as follows: Example B9: Myzus persicae systemic/feeding activity, curative, mixed population (pea seedling roots). The following applies: 144 h, pea seedling roots in test solution, 6 days after introduction. From the text:
Example B9: Activity Against Myzus persicae (Green Peach Aphid)
(Systemic/Feeding Activity, Curative), Mixed Population
Roots of pea seedlings, infested with an aphid population of mixed ages, were placed directly in the test solutions. 6 days after introduction, samples were checked for mortality and special effects on the plant.

For assay [10] the test system is unchanged. Briefly: Example B6: Myzus persicae feeding activity sachet test, mixed population. The following applies: 120 h, sucrose solution, 5 days after infestation. The text has this: Example B6: Activity Against Myzus persicae (Green Peach Aphid)
(Feeding Activity Sachet Test), Mixed Population
Test compounds were applied by pipette into 24 well plates and mixed with Sucrose solution. The plates were closed with a stretched Parafilm. A plastic stencil with 24 holes is placed onto the plate and infested pea seedlings were placed directly on the Parafilm. The infested plate is closed with a gel blotting paper and another plastic stencil and then turned upside down. 5 days after infestation the samples were checked on mortality. Application rate: 12.5 ppm.

For orientation: mortality means the percentage killed.

With `CCS(=O)(=O)c1cc(C(F)(F)F)cnc1-c1ncc(-c2cc(C(F)(F)F)ccn2)n1C` [Compound P3], the percent control (mortality, anti-feedancy or growth inhibition) at 400 ppm in [1] was not below 80%. Besides, the percent control (mortality, anti-feedancy or growth inhibition) at 12.5 ppm in [2] is not below 80%. Also, the mortality at 400 ppm in [3] is more than 80%; in assay [4] it was more than 80%; in assay [5], not below 80%.

`CCS(=O)(=O)c1cc(C(F)(F)F)cnc1-c1ncc(-c2ccc(C(F)(F)F)nc2)n1C` [Compound P4]: in assay [1], the percent control (mortality, anti-feedancy or growth inhibition) at 400 ppm is not below 80%. Besides, in assay [2], the percent control (mortality, anti-feedancy or growth inhibition) at 12.5 ppm was not below 80%. Besides, the mortality at 400 ppm in [6], in assay [3], in [4], in assay [7] and in assay [8] was more than 80% in each case. The mortality at 24 ppm in [9] was not below 80%.

On to `CCS(=O)(=O)c1cc(C(F)(F)F)cnc1-c1ncc(-c2ccnc(C(F)(F)F)c2)n1C` [Compound P6], for which, in assay [1], the percent control (mortality, anti-feedancy or growth inhibition) at 400 ppm is not below 80%. Moreover, the mortality at 400 ppm in assay [6], in assay [3], in [4] and in assay [7] was more than 80% in each case.

For the molecule `CCS(=O)(=O)c1cc(C(F)(F)F)cnc1-c1ncc(-c2cccc(C(F)(F)F)n2)n1C` [Compound P8], the percent control (mortality, anti-feedancy or growth inhibition) at 400 ppm in [1] was not below 80%. Further, the mortality at 400 ppm in assay [4] and in assay [8] was more than 80% throughout.

Consider `CCS(=O)(=O)c1cc(C(F)(F)F)ccc1-c1ncc(-c2ccc(C(F)(F)F)cc2)n1C` [Compound P9], for which the percent control (mortality, anti-feedancy or growth inhibition) at 400 ppm in assay [1] was not below 80%. In addition, in [2], the percent control (mortality, anti-feedancy or growth inhibition) at 12.5 ppm was not below 80%. Besides, the mortality at 400 ppm in assay [6], in [3], in assay [4] and in [7] was more than 80% each time.

As for `CCS(=O)(=O)c1cc(C(F)(F)F)ccc1-c1ncc(-c2ccc(C(F)(F)F)nc2)n1C` [Compound P10], the percent control (mortality, anti-feedancy or growth inhibition) at 400 ppm in assay [1] is not below 80%. The percent control (mortality, anti-feedancy or growth inhibition) at 12.5 ppm in [2] is not below 80%. The mortality at 400 ppm in [6], in assay [3], in assay [4] and in assay [7] was more than 80% throughout.

On to `CCS(=O)(=O)c1cc(C(F)(F)F)cnc1-c1ncc(-c2ccc(S(=O)(=O)C(F)(F)F)cc2)n1C` [Compound P12], for which, in [1], the percent control (mortality, anti-feedancy or growth inhibition) at 400 ppm was not below 80%. In addition, in [2], the percent control (mortality, anti-feedancy or growth inhibition) at 12.5 ppm was not below 80%. The mortality at 400 ppm in assay [6] and in [3] was more than 80% each time.

With `CCS(=O)(=O)c1cc(C(F)(F)F)cnc1-c1ncc(-c2ccc(SC(F)(F)F)cc2)n1C` [Compound P15], in assay [1], the percent control (mortality, anti-feedancy or growth inhibition) at 400 ppm is not below 80%. Also, the percent control (mortality, anti-feedancy or growth inhibition) at 12.5 ppm in assay [2] was not below 80%. Also, the mortality at 400 ppm in assay [6], in [3], in assay [4], in assay [7] and in assay [8] was more than 80% throughout.

Consider `CCS(=O)(=O)c1cc(C(F)(F)F)cnc1-c1ncc(-c2ccc(Cl)c(F)c2)n1C` [Compound P25], for which the percent control (mortality, anti-feedancy or growth inhibition) at 400 ppm in assay [1] is not below 80%. Also, the mortality at 400 ppm in assay [6], in [3] and in assay [8] was more than 80% in each case. Further, the mortality at 12.5 ppm in assay [10] was not below 80%.

Regarding `CCS(=O)(=O)c1cc(C(F)(F)F)cnc1-c1ncc(-c2ccc(Cl)c(C(F)(F)F)c2)n1C` [Compound P38], in assay [1], the percent control (mortality, anti-feedancy or growth inhibition) at 400 ppm was not below 80%. Further, the mortality at 400 ppm in [6], in assay [3] and in [8] was more than 80% in each case. In addition, in assay [10], the mortality at 12.5 ppm was not below 80%.

Turning to `CCS(=O)(=O)c1cc(C(F)(F)F)cnc1-c1ncc(-c2ccnc(F)c2)n1C` [Compound P39], the percent control (mortality, anti-feedancy or growth inhibition) at 400 ppm in [1] is not below 80%. The mortality at 400 ppm in assay [6] and in assay [3] was more than 80% throughout. In addition, the mortality at 12.5 ppm in assay [10] is not below 80%. For the same molecule, the mortality at 24 ppm in assay [9] is not below 80%.

Take `CCS(=O)(=O)c1cc(C(F)(F)F)cnc1-c1ncc(-c2ccc(OC(F)(F)F)cc2)n1C` [Compound P40]: the percent control (mortality, anti-feedancy or growth inhibition) at 400 ppm in assay [1] is not below 80%. The mortality at 400 ppm in [6], in assay [3] and in [8] was more than 80% each time. The molecule further returned a mortality at 12.5 ppm in [10] not below 80%.

With `CCS(=O)(=O)c1cc(C(F)(F)F)cnc1-c1ncc(-c2cnc(C(F)(F)F)nc2)n1C` [Compound P50], the percent control (mortality, anti-feedancy or growth inhibition) at 400 ppm in assay [1] is not below 80%. Further, the mortality at 400 ppm in assay [6] and in assay [3] was more than 80% each time. The molecule further gave a mortality at 12.5 ppm in assay [10] not below 80%. This molecule had a mortality at 24 ppm in [9] not below 80%.

On to `CCS(=O)(=O)c1cc(C(F)(F)F)cnc1-c1ncc(-c2ccc(F)nc2)n1C` [Compound P54], for which the percent control (mortality, anti-feedancy or growth inhibition) at 400 ppm in assay [1] is not below 80%. Moreover, the mortality at 400 ppm in [6] and in assay [3] was more than 80% each time. Also, in assay [10], the mortality at 12.5 ppm is not below 80%. In addition, the mortality at 24 ppm in assay [9] is not below 80%.

The values are drawn from patent publication US9988366B2, “Pesticidally active heterocyclic derivatives with sulphur containing substituents” (Syngenta Participations AG, priority 2014, dated 2018).
